Earlier results in patent US8444622B2, “Device, system, and method for targeted delivery of anti-inflammatory medicaments to a mammalian subject” (The Invention Science Fund I, LLC, priority 2009, dated 2013).

elimination from synovial fluid (appreciable drug concentrations may still be measurable after 24 hours): slow
time to steady-state in synovial fluid (once daily dosing of naproxen sodium): within a week
predicted accumulation ratio based on trough concentration (synovial fluid, once daily dosing of naproxen sodium): 2.4
Structure (SMILES): COc1ccc2cc([C@H](C)C(=O)O)ccc2c1 [naproxen]
